Data published in patent publication US20040248765A1, “Tumour targeting prodrugs activated by metallo matrixproteinases” (priority 2001, published 2004).

In the case of CCCC[C@H](NC(=O)[C@H](C)NC(=O)[C@H](C)NC(=O)[C@@H](C)N)C(=O)NCC(=O)N[C@@H](CC(C)C)C(=O)N1CCC[C@H]1C(=O)NCCCNc1cccc2c1C(=O)c1ccccc1C2=O.O=C(O)C(F)(F)F, the melting point is reported as 192 °C. CC(C)C[C@H](NC(=O)[C@H](Cc1ccc(O)cc1)NC(=O)[C@H](C)NC(=O)[C@@H](C)N)C(=O)NCC(=O)N[C@@H](CC(C)C)C(=O)N1CCC[C@H]1C(=O)NCCCNc1cccc2c1C(=O)c1ccccc1C2=O.O=C(O)C(F)(F)F showed a melting point of 190 to 194 °C. CCC[C@H](NC(=O)[C@H](Cc1ccc(O)cc1)NC(=O)[C@H](C)NC(=O)[C@@H](C)N)C(=O)NCC(=O)N[C@@H](CC(C)C)C(=O)N1CCC[C@H]1C(=O)NCCCNc1cccc2c1C(=O)c1ccccc1C2=O.O=C(O)C(F)(F)F gave a melting point of 190 °C. CSC[C@H](NC(=O)[C@H](Cc1ccc(O)cc1)NC(=O)[C@H](C)NC(=O)[C@@H](C)N)C(=O)NCC(=O)N[C@@H](CC(C)C)C(=O)N1CCC[C@H]1C(=O)NCCCNc1cccc2c1C(=O)c1ccccc1C2=O.O=C(O)C(F)(F)F gave a melting point of 195 °C. CCC[C@H](NC(=O)CNC(=O)[C@H](CC(C)C)NC(=O)[C@H](C)NC(=O)[C@H](C)NC(=O)[C@@H](C)N)C(=O)N1CCC[C@H]1C(=O)NCCCNc1cccc2c1C(=O)c1ccccc1C2=O.O=C(O)C(F)(F)F showed a melting point of 192 to 196 °C. With CC(C)C[C@H](NC(=O)CNC(=O)[C@H](C)NC(=O)[C@@H](C)N)C(=O)N[C@@H](C)C(=O)N[C@@H](CC(C)C)C(=O)N1CCC[C@H]1C(=O)NCCCNc1cccc2c1C(=O)c1ccccc1C2=O.O=C(O)C(F)(F)F the melting point was 192 °C. CC(C)C[C@H](NC(=O)CNC(=O)[C@H](C)NC(=O)[C@@H](C)N)C(=O)N[C@@H](Cc1ccccc1)C(=O)N[C@@H](CC(C)C)C(=O)N1CCC[C@H]1C(=O)NCCCNc1cccc2c1C(=O)c1ccccc1C2=O.O=C(O)C(F)(F)F gave a melting point of 190 to 194 °C. NCC(=O)N1CCC[C@H]1C(=O)NCCCNc1cccc2c1C(=O)c1ccccc1C2=O.O=C(O)C(F)(F)F showed a melting point of 160 to 166 °C. For CC(C)C[C@H](N)C(=O)NCC(=O)N1CCC[C@H]1C(=O)NCCCNc1cccc2c1C(=O)c1ccccc1C2=O.O=C(O)C(F)(F)F, the melting point was 172 to 174 °C. Work on CC(C)C[C@H](NC(=O)[C@@H](N)Cc1ccccc1)C(=O)NCC(=O)N1CCC[C@H]1C(=O)NCCCNc1cccc2c1C(=O)c1ccccc1C2=O.O=C(O)C(F)(F)F yielded a melting point of 164 to 168 °C. CC(C)C[C@H](NC(=O)[C@H](Cc1ccccc1)NC(=O)CN)C(=O)NCC(=O)N1CCC[C@H]1C(=O)NCCCNc1cccc2c1C(=O)c1ccccc1C2=O.O=C(O)C(F)(F)F showed a melting point of 157 °C. NCC(=O)N1CCC[C@@H]1C(=O)NCCCNc1cccc2c1C(=O)c1ccccc1C2=O.O=C(O)C(F)(F)F showed a melting point of 156 to 162 °C. With CC(C)C[C@H](N)C(=O)NCC(=O)N1CCC[C@@H]1C(=O)NCCCNc1cccc2c1C(=O)c1ccccc1C2=O.O=C(O)C(F)(F)F the melting point was 174 to 178 °C. N[C@@H](Cc1ccccc1)C(=O)N1CCC[C@@H]1C(=O)NCCCNc1cccc2c1C(=O)c1ccccc1C2=O.O=C(O)C(F)(F)F showed a melting point of 118 to 120 °C. Molecule NCC(=O)N[C@@H](Cc1ccccc1)C(=O)N1CCC[C@@H]1C(=O)NCCCNc1cccc2c1C(=O)c1ccccc1C2=O.O=C(O)C(F)(F)F has a melting point of 128 to 130 °C. CC[C@H](C)[C@H](N)C(=O)NCC(=O)N[C@@H](Cc1ccccc1)C(=O)N1CCC[C@@H]1C(=O)NCCCNc1cccc2c1C(=O)c1ccccc1C2=O.O=C(O)C(F)(F)F showed a melting point of 120 to 126 °C. In the case of CC[C@H](C)[C@H](NC(=O)[C@H](Cc1ccccc1)NC(=O)[C@@H](N)CC(C)C)C(=O)NCC(=O)N[C@@H](Cc1ccccc1)C(=O)N1CCC[C@@H]1C(=O)NCCCNc1cccc2c1C(=O)c1ccccc1C2=O.O=C(O)C(F)(F)F, the melting point is reported as 168 to 170 °C. CC[C@H](C)[C@H](NC(=O)[C@H](Cc1ccccc1)NC(=O)[C@H](CC(C)C)NC(=O)[C@@H](C)N)C(=O)NCC(=O)N[C@@H](Cc1ccccc1)C(=O)N1CCC[C@@H]1C(=O)NCCCNc1cccc2c1C(=O)c1ccccc1C2=O.O=C(O)C(F)(F)F showed a melting point of 144 to 146 °C.
